Test results: ChEMBL document CHEMBL1759988, “Isatin-β-thiosemicarbazones as potent herpes simplex virus inhibitors” (Bioorg Med Chem Lett, 2011)

Assays:
[1] = Cytotoxicity against human RD cells; type: cell-based
Human alphaherpesvirus 1 = test: Antiviral activity against HSV1 by plaque reduction assay; type: functional, organism-based
Human alphaherpesvirus 2 = test: Antiviral activity against HSV2 by plaque reduction assay; type: functional, organism-based

Row | SMILES | IC50 (Human alphaherpesvirus 1) | IC50 (Human alphaherpesvirus 2) | CC50 [1]
1 | CN(C)C(=S)N/N=C1/C(=O)Nc2ccccc21 | > 25 µM | > 25 µM | > 25 µM
2 | O=C1/C(=N\NC(=S)Nc2ccccc2)c2ccccc2N1Cc1ccccc1 | > 25 µM | > 25 µM | > 25 µM
3 | O=C1Nc2ccccc2/C1=N/NC(=S)N1CCCCC1 | > 25 µM | 3.14 µM | > 25 µM
4 | O=C1Nc2ccccc2/C1=N/NC(=S)Nc1ccc(N2CCOCC2)cc1 | > 25 µM | > 25 µM | > 25 µM
5 | O=C1Nc2ccccc2/C1=N/NC(=S)Nc1ccc(-n2cccn2)cc1 | 6.21 µM | > 25 µM | > 25 µM
6 | CCNC(=S)N/N=C1\C(=O)Nc2ccccc21 | > 25 µM | > 25 µM | > 25 µM
7 | CCCN(CCC)C(=S)N/N=C1/C(=O)Nc2ccccc21 | > 25 µM | > 25 µM | > 25 µM
8 | CCN(CC)C(=S)N/N=C1\C(=O)Nc2ccccc21 | > 25 µM | 1.54 µM | > 25 µM
9 | O=C1Nc2ccccc2/C1=N/NC(=S)N1CCOCC1 | 1.3 µM | 2.74 µM | > 25 µM
10 | CCCNC(=S)N/N=C1\C(=O)Nc2ccccc21 | > 25 µM | > 25 µM | > 25 µM
11 | O=C(N/N=C1\C(=O)Nc2ccccc21)Nc1ccccc1 | > 25 µM | > 25 µM | > 25 µM
12 | O=C1/C(=N\NC(=S)Nc2ccccc2)c2ccccc2N1c1ccccc1 | > 25 µM | > 25 µM | > 25 µM
13 | O=C1Nc2ccccc2/C1=N/NC(=S)N1CCCC1 | > 25 µM | 5.8 µM | > 25 µM
14 | O=C1Nc2ccccc2/C1=N/NC(=S)Nc1ccccc1Cl | > 25 µM | > 25 µM | > 25 µM
15 | Nc1nc2c(ncn2COCCO)c(=O)[nH]1 [ACYCLOVIR] | 0.3 µM | 1.27 µM | > 25 µM
16 | CNC(=S)N/N=C1\C(=O)Nc2ccccc21 | > 25 µM | > 25 µM | > 25 µM
17 | COc1ccccc1NC(=S)N/N=C1\C(=O)Nc2ccccc21 | > 25 µM | > 25 µM | > 25 µM

Continued, in another order:

Row | IC50 (Human alphaherpesvirus 1) | IC50 (Human alphaherpesvirus 2) | SMILES | CC50 [1]
18 | > 25 µM | > 25 µM | Cc1ccc(NC(=S)N/N=C2\C(=O)Nc3ccccc32)cc1 | > 25 µM
19 | > 25 µM | > 25 µM | O=C1Nc2ccc(Br)cc2/C1=N/NC(=S)Nc1ccccc1 | > 25 µM
20 | 3.84 µM | > 25 µM | Cc1cccc(NC(=S)NNC2=c3ccccc3=NC2=O)c1 | > 25 µM
21 | > 25 µM | > 25 µM | Cc1ccccc1NC(=S)N/N=C1\C(=O)Nc2ccccc21 | > 25 µM
22 | 5.9 µM | > 25 µM | O=C1Nc2ccc(OC(F)(F)F)cc2/C1=N/NC(=S)Nc1ccccc1 | > 25 µM
23 | > 25 µM | > 25 µM | Cc1ccc(NC(=O)N/N=C2\C(=O)Nc3ccccc32)cc1 | > 25 µM
24 | > 25 µM | > 25 µM | O=C1Nc2ccccc2/C1=N/NC(=S)Nc1ccc(F)cc1 | > 25 µM
25 | 2.97 µM | > 25 µM | O=C1Nc2ccccc2/C1=N/NC(=S)Nc1ccccc1 | > 25 µM
26 | > 25 µM | > 25 µM | O=C1Nc2ccccc2/C1=N/NC(=S)Nc1cccc(Cl)c1 | > 25 µM
27 | 5.01 µM | > 25 µM | COc1ccc2c(c1)/C(=N/NC(=S)Nc1ccccc1)C(=O)N2 | > 25 µM
28 | > 25 µM | > 25 µM | O=C1Nc2ccc(Cl)cc2/C1=N/NC(=S)Nc1ccccc1 | > 25 µM
29 | > 25 µM | > 25 µM | O=C1Nc2ccc(F)cc2/C1=N/NC(=S)Nc1ccccc1 | > 25 µM
30 | 2.64 µM | > 25 µM | COc1cccc(NC(=S)N/N=C2\C(=O)Nc3ccccc32)c1 | > 25 µM
31 | > 25 µM | > 25 µM | CN1C(=O)/C(=N\NC(=S)Nc2ccccc2)c2ccccc21 | > 25 µM
32 | 2.2 µM | > 25 µM | COc1ccc(NC(=S)NNC2=c3ccccc3=NC2=O)cc1 | > 25 µM
33 | > 25 µM | > 25 µM | Cc1cccc(NC(=O)N/N=C2\C(=O)Nc3ccccc32)c1 | > 25 µM
34 | 2.69 µM | > 25 µM | O=C1Nc2ccccc2/C1=N/NC(=S)Nc1ccc(Cl)cc1 | > 25 µM
35 | > 25 µM | > 25 µM | COc1cccc(NC(=O)N/N=C2\C(=O)Nc3ccccc32)c1 | > 25 µM
36 | > 25 µM | > 25 µM | Cc1ccc2c(c1)/C(=N/NC(=S)Nc1ccccc1)C(=O)N2 | > 25 µM
37 | > 25 µM | > 25 µM | CCN1C(=O)/C(=N\NC(=S)Nc2ccccc2)c2ccccc21 | > 25 µM
38 | 3.29 µM | > 25 µM | O=C1Nc2ccccc2/C1=N/NC(=S)Nc1ccc(Br)cc1 | > 25 µM
